Test results from patent publication US20230132386A9, “GRANZYME B DIRECTED IMAGING AND THERAPY” (CytoSite Biopharma Inc., priority 2019, published 2023).

Tests used:
[1] = biological target: T1, Granzyme B (human lymphocytes) (Homo sapiens, UniProt P10144); assay: human Granzyme B biochemical assay; details: Granzyme B (human lymphocytes) 5 nM, substrate Ac-IETD-AFC 200 μM, 30 mins incubation, 22° C.
T1 construct: Supplied Granzyme B (human lymphocytes) enzyme is reconstituted to 1 mg/ml (about 31.25 μM); purchased Enzo Lifesciences ALX-200-602-0010; host or cells: human lymphocytes
Text: The compounds of Formula I described above can be tested using the human Granzyme B biochemical assay provided below.
• 1. Granzyme B (human lymphocytes) Enzyme: Enzo Lifesciences, Cat #ALX-200-602-0010 • 2. Substrate (Ac-IETD-AFC): Enzo Lifesciences, Cat #ALX-260-110-M010 • 3. Standard inhibitor (Compound 20-Isomer3): Synthesized internally in TCG • 4. Dimethyl sulfoxide (DMSO): Sigma-Aldrich, Cat #41639 • 5. HEPES: Gibco, Cat #15630-080 • 6. Calcium chloride: Sigma-Aldrich, Cat #C-5080 • 7. Distilled water: Gibco, Cat #15230-162 • 8. Bovine serum albumin (BSA): Sigma-Aldrich, Cat #A3059 • 9. Black, clear bottom PDL plate (384 wells): Greiner bio-one, Cat #781946 • 10. Polypropylene plate (384 wells): Corning, Cat #3657
• 1. DMSO is added to the respective compound vial to make 10 mM Compound stock solution, which is stored at −20° C. • 2. 10 mM Compound stock solution is thawed and 1 mM DMSO stock solution is prepared by adding 45 μl of DMSO to 5 μl of 10 mM compound stock solution. • 3. 1 mM DMSO stock solution is serially diluted (3.16 fold) by adding 10 μl of 1 mM DMSO stock to 21.6 μl of DMSO and mixed well. 10 μl of the resulting solution is then added to 21.6 μl of DMSO and mixed well. This process is continued to created 11 dilution points for the assay standard inhibitor and 8 dilution points for test compounds in 384 well polypropylene plate. • 4. 2 μl of each dilution are dispensed in assay ready plate. 5. Each well is then diluted 25 fold by adding 48 μl of assay buffer to 2 μl of compound in assay ready plate to make Compound working stock.
• 1. Supplied Granzyme B (human lymphocytes) enzyme is reconstituted to 1 mg/ml (about 31.25 μM) and 1 μl aliquots are kept in −80° C. • 2. 1 μl aliquot is diluted to 625 nM by adding 49 μl of assay buffer containing 0.1% BSA and gently mixed. • 3. 10 nM enzyme working stock is prepared by adding assay buffer containing 0.1% BSA.
• 1. Supplied substrate (Ac-IETD-AFC) is reconstituted by adding DMSO to make 10 mM stock, aliquoted and stored in −80° C. • 2. 4 mM substrate mid stock is prepared by adding DMSO. • 3. Substrate working stock i.e. 800 μM is prepared by adding assay buffer.
• 1. 10 μl of serially diluted Compound working stock (start dose 40 μM) is added from assay ready plate to assay plate according to the plate map. • 2. Positive control (40 μM of standard inhibitor) and negative control (4% DMSO buffer) are added to the respective wells. • 3. 20 μl of Enzyme working stock is added to assay plate and gently mixed. • 4. The plate is incubated at 22° C. for 30 mins and spun at 130 g for 1 minute. • 5. After incubation, 10 μl of Substrate working stock is added to respective wells and mixed (Assay plate is maintained in dark after substrate addition). • 6. The plate is incubated at 22° C. for 60 mins and spun at 130 g for 1 minute. • 7. Fluorescence read (RFU) (Ex: 400 nm/Em: 505 nm) is taken after 60 mins in EnVision Multimode plate reader.
• 1. The RFU read is analyzed to calculate percent inhibition by normalizing with positive and negative controls taken as 100% and 0% effect respectively in Microsoft excel. • 2. Graph is generated by putting the analyzed data in GraphPad prism 5.0 software to get IC50 value for each compound.

[2] = metabolic stability assay using liver microsomes; type: in vitro ADME; details: human liver microsomes 0.4 mg/ml, 1 μM, NRS, 37° C.
Procedure: In addition, compounds of Formula I described above are also tested in the metabolic stability assay using liver microsomes, as provided below.
Buffer pH7.4: Prepare 1 (M) KH2PO4 and 1 (M) K2HPO4. Titrate 1(M) K2HPO4 with 1 (M) KH2PO4 to obtain pH 7.40. Dilute this buffer 10 fold in Water (30 ml buffer+270 ml of water) to obtain 100 mM phosphate buffer. Adjust pH to 7.40±0.02 using 5(N) HCl or 5(N) NaOH.
NADPH Regeneration System (NRS): Prepare a solution containing 13 mM NADP, 33 mM Glucose-6-phosphate, 33 mM MgCl2 and 4 U/ml Glucose-6-phosphate dehydrogenase in buffer.
Liver Microsome (LM) suspension: Thaw LM vial on ice, then mix 1.0 ml LM (20 mg/ml) with 19 ml buffer [final LM Conc: 1 mg/ml]
LM+NRS suspension: Mix 5.0 ml NRS with 20 ml LM suspension [final LM Conc: 0.8 mg/ml]
System suitability standard: a synthesized compound having Mol wt 686.2 used as System suitability standard. Dissolve this compound in ice-cold acetonitrile to obtain concentration of 0.1 μg/ml and store at 4° C.
Sub stock (100 μM): 4 μl of 10 mM Compound Stock+398 μl Acetonitrile Working plate (2 μM): 10 μl of 100 μM Sub stock+490 μl buffer
Incubate all plastic materials including tips at 37° C. overnight.
Incubate LM suspension and NRS at 37° C. for 15 min before use.
Add 40 μl buffer to the wells of blank plate.
Add 40 μl compound (from working plate) to 0, 5, 10, 20, 30 and 60 min plates.
Initiate reaction by adding 40 μl of LM+NRS suspension in each plate.
Terminate reaction by adding 240 μl ice-cold acetonitrile containing system suitability standard at designated time points. For T=0 add 240 μl ice-cold acetonitrile containing system suitability standard before LM+NRS addition.
Centrifuge (3500 rpm, 20 min and 15° C.) the plates.
Mix 110 μl supernatant with 110 μl water and quantitate amount of Compound in the solution using LC-MS/MS.
% Remaining at t=x min=100×([LC-MS/MS peak area of analyte]t=x min)/([LC-MS/MS peak area of analyte]t=0min)
Human LM: Corning, Cat #25117
Certain compounds of this disclosure were tested in the microsomal stability assay provided above.

T1 sequence (P10144 21-247): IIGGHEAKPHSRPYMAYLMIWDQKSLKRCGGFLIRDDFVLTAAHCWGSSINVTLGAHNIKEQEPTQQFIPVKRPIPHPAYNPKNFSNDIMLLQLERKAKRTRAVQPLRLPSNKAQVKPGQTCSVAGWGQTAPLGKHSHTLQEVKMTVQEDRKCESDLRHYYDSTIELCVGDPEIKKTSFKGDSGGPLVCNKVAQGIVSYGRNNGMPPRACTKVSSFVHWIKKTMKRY

Compound | IC50 [1] [nM] | Human Liver Microsomes % remaining @30 min [2] [%]
CC[C@H](C)[C@@H](C(=O)N[C@H]1CCc2cccc3c2N(C1=O)[C@H](C(=O)NCc1c[nH]nn1)C3)N(C(=O)COCCF)C(C)C (single isomer, unassigned) [Compound C177] | 1000 to 5000 | –
CC[C@H](C)[C@@H](C(=O)N[C@H]1CCc2cccc3c2N(C1=O)[C@H](C(=O)NCc1c[nH]nn1)C3)N(CCc1csc2ccccc12)C(C)=O (single isomer, unassigned) [Compound C184] | > 5000 | –
CC[C@H](C)[C@@H](C(=O)N[C@H]1CCc2cccc3c2N(C1=O)[C@H](C(=O)NCc1c[nH]nn1)C3)N(C)C(=O)CC(=O)OC (single isomer, unassigned) [Compound C194] | 301 to 1000 | –
CC[C@H](C)[C@@H](C(=O)N[C@H]1CCc2cccc3c2N(C1=O)[C@H](C(=O)NCc1c[nH]nn1)C3)N(C)C(=O)Cc1c[nH]cn1 (single isomer, unassigned) [Compound C197] | 301 to 1000 | –
CC[C@H](C)[C@@H](C(=O)N[C@H]1CCc2cccc3c2N(C1=O)[C@H](C(=O)NCc1c[nH]nn1)C3)N(C)C(=O)Cn1ccnc1 (single isomer, unassigned) [Compound C198] | 301 to 1000 | 55.4
CC[C@H](C)[C@@H](C(=O)N[C@H]1CCc2cccc3c2N(C1=O)[C@H](C(=O)NCc1c[nH]nn1)C3)N(CCOCCF)C(C)=O (single isomer, unassigned) [Compound C203] | 301 to 1000 | –
CC[C@H](C)[C@@H](C(=O)N[C@H]1CCc2cccc3c2N(C1=O)[C@H](C(=O)NCc1c[nH]nn1)C3)N(CCC(=O)O)C(=O)COCCF (single isomer, unassigned) [Compound C230] | 301 to 1000 | 98.2
N-Methyl-N-((1S,2S)-2-methyl-1- {(1S,8S)-9-oxo-1-[(1H-[1,2,3]triazol- 4-y lmethyl)-carbamoyl]-1,2,8,9- tetrahydro-7H-6-oxa-9a-aza- benzo[cd]azu1en-8-ylcarbamoyl}- butyl)-malonamic acid [Compound C214] | 301 to 1000 | 100.0

Second part, the compound after the results:

IC50 [1] [nM] | Human Liver Microsomes % remaining @30 min [2] [%] | Compound
301 to 1000 | – | CC[C@H](C)[C@@H](C(=O)N[C@H]1CCc2cccc3c2N(C1=O)[C@H](C(=O)NCc1c[nH]nn1)C3)N(C)C(=O)Cc1csc2ccccc12 (single isomer, unassigned) [Compound C152]
301 to 1000 | 66.3 | CC[C@H](C)[C@@H](C(=O)N[C@H]1CCc2cccc3c2N(C1=O)[C@H](C(=O)NCc1c[nH]nn1)C3)N(C)C(=O)COCCF (single isomer, unassigned) [Compound C155]
301 to 1000 | – | CC[C@H](C)[C@@H](C(=O)N[C@H]1CCc2cccc3c2N(C1=O)[C@H](C(=O)NCc1c[nH]nn1)C3)N(CC)C(=O)COCCF (single isomer, unassigned) [Compound C176]
301 to 1000 | 0.8 | CC[C@H](C)[C@@H](C(=O)N[C@H]1CCc2cccc3c2N(C1=O)[C@H](C(=O)NCc1c[nH]nn1)C3)N(CCOCCF)C(=O)Cc1nc2ccccc2o1 (single isomer, unassigned) [Compound C178]
301 to 1000 | – | CC[C@H](C)[C@@H](C(=O)N[C@H]1CCc2cccc3c2N(C1=O)[C@H](C(=O)NCc1c[nH]nn1)C3)N(CCOCCCF)C(=O)Cc1nc2ccccc2o1 (single isomer, unassigned) [Compound C179]
301 to 1000 | – | CC[C@H](C)[C@@H](C(=O)N[C@H]1CCc2cccc3c2N(C1=O)[C@H](C(=O)NCc1c[nH]nn1)C3)N(C)C(=O)CC(=O)O (single isomer, unassigned) [Compound C190]
301 to 1000 | 83.6 | CC[C@H](C)[C@@H](C(=O)N[C@H]1CCc2cccc3c2N(C1=O)[C@H](C(=O)NCc1c[nH]nn1)C3)N(C)C(=O)CC(N)=O (single isomer, unassigned) [Compound C191]
301 to 1000 | 72.8 | CC[C@H](C)[C@@H](C(=O)N[C@H]1CCc2cccc3c2N(C1=O)[C@H](C(=O)NCc1c[nH]nn1)C3)N(C)C(=O)CC(=O)NC (single isomer, unassigned) [Compound C192]
301 to 1000 | – | CC[C@H](C)[C@@H](C(=O)N[C@H]1CCc2cccc3c2N(C1=O)[C@H](C(=O)NCc1c[nH]nn1)C3)N(C)C(=O)CC(=O)N(C)C (single isomer, unassigned) [Compound C193]
